In US20230416239A1, “COMPOUNDS AND METHODS FOR TREATING A CYTOKINE-MEDIATED DISEASE” (CONSERVATOIRE NATIONAL DES ARTS ET MÉTIERS, priority 2020, published 2023):
pIC50: −log10 of the molar value.

How the values were obtained:
TNFα = TNFα (Homo sapiens, UniProt P01375); assay: Immunoassay binding test, TNFa; settings: compounds 100 to 0.78 μM; TNFα 10 ng/ml, receptor 100 ng/ml; read-out: BINDING TNF IC50
Experimental: Microtiter plates (96 wells) are covered with 100 μl of receptor per well, and incubated overnight at 4° C. The following day, after 2 washes in PBS/Tween20, the plates are saturated with 150 μl of PBS/BSA 2% per well, for 2 h at 37° C. […] The cytokine is diluted in series (six concentrations) in a final volume of 120 μl per well. […] The different mixtures are incubated for 2 h at 37° C. 100 μl of each mixture are then transferred to the microtiter plate, respecting the plate plan previously defined and incubated overnight at 4° C. After three washes, 100 μl of biotinylated anti-cytokine secondary antibody are added to each well, then incubated for 2 h at 37° C. After three washes, 100 μl of Avidin-HRP (1/500th dilution) are added and incubated for 30 minutes at 37° C. […] The plates are then read with a spectrophotometer at 450 nm, measuring the optical density for each well.
(§1) This binding test is carried out with different cytokines: TNFa, IL-4, IL-6 and IL-13. For IL-6, the incubation of molecules with the cytokine also requires the presence of IL-6Ra at a final concentration of 200 ng/ml.
(§2) The final concentrations used for each of the cytokines are presented below: […]

TNFa/TNFRI interaction = TNFa/TNFRI interaction (Homo sapiens, UniProt P01375); assay: TNFa/TNFRI interaction displacement test; assay type: binding; settings: for Displacement EC50 TNFa in presence of compound: Difference: Compound EC50 minus SPD304 EC50; for Displacement (%): compounds at 50 μM, human TNFRI 100 ng/ml;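 as to Displacement EC50 TNFa in presence of compound: Difference: SPD304 reference at 20 µM final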
Experimental: Microtiter plates (96 wells) are covered with 100 μl per well of human TNFRI, at a concentration of 100 ng/ml, then incubated overnight at 4° C. The following day, after two washes in PBS/Tween20, the plates are saturated with 150 μl of PBS/BSA 2% for 2 h at 37° C.
100 μl of each mixture are then transferred to the microtiter plate, respecting the established plate plan and incubated overnight at 4° C.
After three washes, 100 μl of biotinylated anti-cytokine secondary antibody are added to each well and incubated for 2 h at 37° C. After three washes, 100 Avl Avidin-HRP (dilution 1/500th) are added and incubated for 30 minutes at 37° C. […] The plates are then read with a spectrophotometer at 450 nm, measuring the optical density (OD) for each well.

IL-4 = target: T1, IL-4 (Homo sapiens, UniProt P05112); assay: Immunoassay binding test, IL-4; settings: for pIC50: IL-4 400 ng/ml, receptor 100 ng/ml, read-out: BINDING IL4 IC50
T1 sequence (P05112 25-153): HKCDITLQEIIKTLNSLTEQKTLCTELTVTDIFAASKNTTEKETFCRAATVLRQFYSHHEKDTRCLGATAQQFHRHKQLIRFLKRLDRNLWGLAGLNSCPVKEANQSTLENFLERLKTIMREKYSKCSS
Experimental: (§3) Microtiter plates (96 wells) are covered with 100 μl of receptor per well, and incubated overnight at 4° C. The following day, after 2 washes in PBS/Tween20, the plates are saturated with 150 μl of PBS/BSA 2% per well, for 2 h at 37° C. Synthetic compounds are diluted in series (final concentrations: 100 to 0.78 μM) then a fixed amount of cytokine in PBS/BSA 1% is added to the compounds, in a final volume of 120 μl per well. […] The cytokine is diluted in series (six concentrations) in a final volume of 120 μl per well. The cytokine is used in the absence of small molecule as well as the range of SPD304 as positive controls and the absence of cytokine and synthetic molecule as negative control. The different mixtures are incubated for 2 h at 37° C. 100 μl of each mixture are then transferred to the microtiter plate, respecting the plate plan previously defined and incubated overnight at 4° C. After three washes, 100 μl of biotinylated anti-cytokine secondary antibody are added to each well, then incubated for 2 h at 37° C. After three washes, 100 μl of Avidin-HRP (1/500th dilution) are added and incubated for 30 minutes at 37° C. […] The plates are then read with a spectrophotometer at 450 nm, measuring the optical density for each well.
as §1, §2

IL-13 = IL-13 (Homo sapiens, UniProt P35225); assay: Immunoassay binding test, IL-13; settings: for pIC50: IL-13 400 ng/ml, receptor 100 ng/ml, read-out: BINDING IL13 IC50
Experimental: Microtiter plates (96 wells) are covered with 100 μl of receptor per well, and incubated overnight at 4° C. The following day, after 2 washes in PBS/Tween20, the plates are saturated with 150 μl of PBS/BSA 2% per well, for 2 h at 37° C. Synthetic compounds are diluted in series (final concentrations: 100 to 0.78 μM) then a fixed amount of cytokine in PBS/BSA 1% is added to the compounds, in a final volume of 120 μl per well. […] The cytokine is diluted in series (six concentrations) in a final volume of 120 μl per well. […] The different mixtures are incubated for 2 h at 37° C. 100 μl of each mixture are then transferred to the microtiter plate, respecting the plate plan previously defined and incubated overnight at 4° C. After three washes, 100 μl of biotinylated anti-cytokine secondary antibody are added to each well, then incubated for 2 h at 37° C. After three washes, 100 μl of Avidin-HRP (1/500th dilution) are added and incubated for 30 minutes at 37° C. […] The plates are then read with a spectrophotometer at 450 nm, measuring the optical density for each well.
as §1, §2

IL-6 = IL-6 (Homo sapiens, UniProt P05231); assay: Immunoassay binding test, IL-6 (gp130 receptor, IL-6Ra present); settings: IL-6Ra 200 ng/ml
Experimental: as §3, §1, §2

Sequence of TNFα (P01375 77-233 limits assumed, species assumed): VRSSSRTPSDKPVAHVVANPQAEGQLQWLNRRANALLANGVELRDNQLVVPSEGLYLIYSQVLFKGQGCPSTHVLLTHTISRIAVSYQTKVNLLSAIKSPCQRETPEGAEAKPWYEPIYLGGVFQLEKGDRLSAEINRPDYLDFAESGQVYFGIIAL
Sequence of TNFa/TNFRI interaction (P01375 77-233 limits assumed): as the sequence (P01375 77-233 limits assumed, species assumed) above
Sequence of IL-6 (P05231 30-212, species assumed): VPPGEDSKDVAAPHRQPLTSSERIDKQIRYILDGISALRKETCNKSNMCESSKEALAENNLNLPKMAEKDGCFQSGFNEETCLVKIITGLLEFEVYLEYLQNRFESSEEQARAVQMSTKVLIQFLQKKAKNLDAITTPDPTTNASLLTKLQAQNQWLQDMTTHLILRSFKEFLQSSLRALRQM
Sequence of IL-13 (P35225 25-146, species assumed): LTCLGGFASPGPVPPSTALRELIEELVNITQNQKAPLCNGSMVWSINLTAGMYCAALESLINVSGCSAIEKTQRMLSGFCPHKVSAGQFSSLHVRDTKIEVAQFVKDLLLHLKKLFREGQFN

Row | Structure (SMILES) | pIC50 (TNFα) | Displacement EC50 TNFa in presence of compound: Difference (TNFa/TNFRI interaction) | Displacement (%) (TNFa/TNFRI interaction) | BINDING IL4 % Neutra at 100 μM (IL-4) | pIC50 (IL-4) | BINDING IL13 % Neutra at 100 μM (IL-13) | pIC50 (IL-13) | BINDING IL6 % Neutra at 100 μM (IL-6)
1 | O=S(=O)(c1ccccc1)n1cc(CN(Cc2ccnc(F)c2)CC2CCCN(C3CCCCC3)C2)c2ccccc21 (stereo not drawn) [Compound 19] | 4.96 | 9.9 ng/mL | 169% | 99% | 5.20 | 98.1% | < 4.30 | 12.6%
2 | Fc1cc(CN(Cc2cn(-c3cccc(C(F)(F)F)c3)c3ccccc23)CC2CCCN(C3CCCCC3)C2)ccn1 (stereo not drawn) [Compound 20] | 4.71 |  | 88% | 99.5% | 5.32 | 97.5% | 5.21 | 18.5%
3 | FC(F)(F)c1cccc(-n2cc(CN(CCCCNC3CCCCC3)Cc3cccnc3)c3ccccc32)c1 [Compound 21] | 4.85 | 4.9 ng/mL | 141% | 98% | 5.68 | 94.6% | 4.71 | 3.7%
4 | FC(F)(F)c1cccc(-n2cc(CN(CCCCNC3CCCCC3)Cc3ccncc3)c3ccccc32)c1 [Compound 22] | 4.77 |  | 120% | 98.4% | 5.39 | 95.2% | < 4.30 | -1.3%
5 | CN(CCCCN(Cc1cccnc1)Cc1cn(-c2cccc(C(F)(F)F)c2)c2ccccc12)C1CCCCC1 [Compound 23] | 5.03 | 5.5 ng/mL | 140% | 98.1% | 5.31 | 85.8% | < 4.30 | 5.6%
6 | CN(CCCCN(Cc1ccncc1)Cc1cn(-c2cccc(C(F)(F)F)c2)c2ccccc12)C1CCCCC1 [Compound 24] | 4.87 | 6.3 ng/mL | 158% | 98.8% | 5.51 | 85.3% | < 4.30 | 3.6%
7 | O=S(=O)(c1ccccc1)n1cc(CN(CCNC2CCCCC2)Cc2cccnc2)c2ccccc21 [Compound 25] | 4.65 |  | 99% | 94.6% | 5.11 | 61.2% | < 4.30 | −15.3%
8 | O=S(=O)(c1ccccc1)n1cc(CN(CCNC2CCCCC2)Cc2ccncc2)c2ccccc21 [Compound 26] | 4.85 |  | 107% | 95.5% | 5.08 | 66% | < 4.30 | −17.2%
9 | CN(CCN(Cc1cccnc1)Cc1cn(S(=O)(=O)c2ccccc2)c2ccccc12)C1CCCCC1 [Compound 27] | 4.86 |  | 121% | 96.3% | 5.11 | 53.9% | < 4.30 | −12%
10 | CN(CCN(Cc1ccncc1)Cc1cn(S(=O)(=O)c2ccccc2)c2ccccc12)C1CCCCC1 [Compound 28] | 4.84 |  | 125% | 96.6% | 5.09 | 38.3% | < 4.30 | 12.4%
11 | FC(F)(F)c1cccc(-n2cc(CN(CCNC3CCCCC3)Cc3ccncc3)c3ccccc32)c1 [Compound 29] | 4.74 |  | 103% | 96.4% | 5.21 | 86.8% | < 4.30 | 17.3%
12 | FC(F)(F)c1cccc(-n2cc(CN(CCNC3CCCCC3)Cc3cccnc3)c3ccccc32)c1 [Compound 30] | 4.70 |  | 106% | 97.3% | 5.40 | 93.6% | < 4.30 | 16.8%
13 | CN(CCN(Cc1ccncc1)Cc1cn(-c2cccc(C(F)(F)F)c2)c2ccccc12)C1CCCCC1 [Compound 31] | 4.87 |  | 120% | 96% | 5.24 | 81% | < 4.30 | 1.7%
14 | CN(CCN(Cc1cccnc1)Cc1cn(-c2cccc(C(F)(F)F)c2)c2ccccc12)C1CCCCC1 [Compound 32] | 4.80 |  | 125% | 97.7% | 5.41 | 76.3% | < 4.30 | 15.5%
